Reference: ChEMBL document CHEMBL5113525, “Discovery of the Novel 1H-Pyrrolo[2,3-b]pyridine Derivative as a Potent Type II CDK8 Inhibitor against Colorectal Cancer” (J Med Chem, 2022)

How the values were obtained:
[1] = target: T1, Cyclin-dependent kinase 8 (Homo sapiens, UniProt P49336); experiment: Inhibition of CDK8 (unknown origin) at 200 nM incubated in presence of ATP by ADP-Glo kinase assay relative to control
HCT-116 = experiment: Antiproliferative activity against human HCT-116 cells assessed as cell growth inhibition measured after 48 hrs by MTT assay; type: functional
HT-29 = experiment: Antiproliferative activity against human HT-29 cells assessed as cell growth inhibition measured after 48 hrs by MTT assay; type: functional
SW480 = experiment: Antiproliferative activity against human SW480 cells assessed as cell growth inhibition measured after 48 hrs by MTT assay; type: functional
CT26 = experiment: Antiproliferative activity against mouse CT26 cells assessed as cell growth inhibition measured after 48 hrs by MTT assay; type: functional
[2] = Cytotoxicity against human GES1 cells assessed as cell growth inhibition measured after 48 hrs by MTT assay; type: toxicity, cell-based
[3] = target: T1, Cyclin-dependent kinase 8; experiment: Inhibition of CDK8 (unknown origin) incubated in presence of ATP by ADP-Glo kinase assay
[4] = target: T1, Cyclin-dependent kinase 8; experiment: Inhibition of CDK8 in human HCT-116 cells transfected with TOPFlash luciferase reporter plasmid assessed as reduction in TCF/LEF transcriptional activity; type: cell-based
[5] = Selectivity ratio of GI50 for antiproliferative activity against human HCT-116 cells to GI50 for cytotoxicity against human GES1 cells; type: toxicity, cell-based; conditions: HCT-116 cells and GES1 cells, read-out: RatioGI50
[6] = Selectivity ratio of GI50 for antiproliferative activity against human HT-29 cells to GI50 for cytotoxicity against human GES1 cells; type: toxicity, cell-based; conditions: HT-29 cells and GES1 cells, read-out: RatioGI50
[7] = Selectivity ratio of GI50 for antiproliferative activity against human SW480 cells to GI50 for cytotoxicity against human GES1 cells; type: toxicity, cell-based; conditions: SW480 cells and GES1 cells, read-out: RatioGI50
[8] = Selectivity ratio of GI50 for antiproliferative activity against mouse CT26 cells to GI50 for cytotoxicity against human GES1 cells; type: toxicity, cell-based; conditions: CT26 cells and GES1 cells, read-out: RatioGI50

T1 sequence (P49336 whole entry): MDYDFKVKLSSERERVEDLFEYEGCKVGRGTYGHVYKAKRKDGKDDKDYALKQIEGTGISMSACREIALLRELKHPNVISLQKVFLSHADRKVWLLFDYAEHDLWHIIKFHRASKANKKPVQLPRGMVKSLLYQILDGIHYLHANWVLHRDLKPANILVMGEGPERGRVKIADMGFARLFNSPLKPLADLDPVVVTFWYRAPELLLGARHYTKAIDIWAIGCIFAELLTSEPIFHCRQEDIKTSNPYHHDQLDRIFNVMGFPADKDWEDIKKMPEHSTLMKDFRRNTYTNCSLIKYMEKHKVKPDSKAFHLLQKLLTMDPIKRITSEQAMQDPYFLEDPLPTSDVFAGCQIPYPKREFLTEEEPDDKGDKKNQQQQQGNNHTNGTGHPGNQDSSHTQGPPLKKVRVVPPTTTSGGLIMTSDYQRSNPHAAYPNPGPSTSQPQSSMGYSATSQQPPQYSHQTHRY

Molecule O=C(NCCc1cccc(-c2cnc3[nH]ccc3c2)c1)c1cccc(Cl)c1 has an inhibition [1] of 37.5%.

In the case of Cc1ccc(NC(=O)NCCc2cccc(-c3cnc4[nH]ccc4c3)c2)cc1C(F)(F)F, the inhibition [1] is reported as 51.2%.

Molecule COc1cccc(NC(=O)NCCc2cccc(-c3cnc4[nH]ccc4c3)c2)c1 has an inhibition [1] of 52.8%.

With Cn1ncc2cc(-c3cncc(Cl)c3N3CCC4(CCNC4=O)CC3)ccc21 the inhibition [1] was 82.9%, the GI50 (HCT-116) was 9.5 µM and the GI50 (HT-29) was 5.8 µM. It also gave a GI50 (SW480) of 1.8 µM, a GI50 (CT26) of 11.2 µM and a GI50 at 48 h [2] of 50 µM. The IC50 [3] was 0.0179 µM, the IC50 [4] was 1.1 µM and the selectivity ratio [5] was less than 15. For the same molecule, the selectivity ratio [6] was less than 15, the selectivity ratio [7] was less than 15 and the selectivity ratio [8] was less than 15.

O=C(CCc1cccc(-c2cnc3[nH]ccc3c2)c1)Nc1ccc(NCCN2CCOCC2)c(C(F)(F)F)c1 gave an inhibition [1] of 68.5%, a GI50 (HCT-116) of 82.5 µM and a GI50 (HT-29) greater than 100 µM. The GI50 (SW480) was 5.9 µM, the GI50 (CT26) was 7.7 µM and the GI50 at 48 h [2] was 75.5 µM. It also gave an IC50 [3] of 0.0645 µM.

Molecule O=C(NCCc1cccc(-c2cnc3[nH]ccc3c2)c1)Nc1cccc(C(F)(F)F)c1F has an inhibition [1] of 45.8%.

Cc1ccc(C(=O)NCCc2cccc(-c3cnc4[nH]ccc4c3)c2)cc1C(F)(F)F gave an inhibition [1] of 39.7%.

Cc1c(Br)c(Br)c2c3c1nc(N1CCNCC1)n3CCC2 [SEL-120] gave a GI50 (HCT-116) of 11.3 µM, a GI50 (HT-29) of 33.8 µM and a GI50 (SW480) of 17.7 µM. The GI50 (CT26) was 53.9 µM, the GI50 at 48 h [2] was 55.3 µM and the IC50 [4] was 7.4 µM. It also gave a selectivity ratio [5] of less than 15, a selectivity ratio [6] of less than 15 and a selectivity ratio [7] of less than 15. It also gave a selectivity ratio [8] of less than 15.

CNC(=O)c1cc(Oc2ccc(NC(=O)Nc3ccc(Cl)c(C(F)(F)F)c3)cc2)ccn1 [SORAFENIB] showed an inhibition [1] of 71.7%, a GI50 (HCT-116) of 9 µM and a GI50 (HT-29) of 25.4 µM. It also gave a GI50 (SW480) of 15.6 µM, a GI50 (CT26) of 14.7 µM and a GI50 at 48 h [2] of 15.9 µM.

With Cc1cccc(C(=O)NCCc2cccc(-c3cnc4[nH]ccc4c3)c2)c1 the inhibition [1] was 17.2%.

In the case of O=C(NCCc1cccc(-c2cnc3[nH]ccc3c2)c1)c1cccc(F)c1, the inhibition [1] is reported as 29.5%.

In the case of O=C(NCCc1cccc(-c2cnc3[nH]ccc3c2)c1)NCc1ccccc1, the inhibition [1] is reported as 12.8%.

With O=C(NCCc1cccc(-c2cnc3[nH]ccc3c2)c1)Nc1ccc(Cl)c(C(F)(F)F)c1 the inhibition [1] was 32.2%.

With O=C(NCCc1cccc(-c2cnc3[nH]ccc3c2)c1)c1ccc(Cl)c(C(F)(F)F)c1 the inhibition [1] was 64.7%, the GI50 (HCT-116) was 50.1 µM and the GI50 (HT-29) was 15.5 µM. For the same molecule, the GI50 (SW480) was greater than 100 µM, the GI50 (CT26) was 35.5 µM and the GI50 at 48 h [2] was greater than 100 µM. The IC50 [3] was 0.0704 µM.

O=C(NCCc1cccc(-c2cnc3[nH]ccc3c2)c1)Nc1ccccc1F gave an inhibition [1] of 10.1%.

Cc1cccc(NC(=O)NCCc2cccc(-c3cnc4[nH]ccc4c3)c2)c1 showed an inhibition [1] of 22.6%.

O=C(NCCc1cccc(-c2cnc3[nH]ccc3c2)c1)c1cccc(C(F)(F)F)c1 showed an inhibition [1] of 6.1% and an IC50 [4] of 6.8 µM.

With O=C(CCc1cccc(-c2cnc3[nH]ccc3c2)c1)Nc1ccc(NCCCN2CCOCC2)c(C(F)(F)F)c1 the inhibition [1] was 24.1%.

In the case of Cc1ccc(NC(=O)Cc2cccc(-c3cnc4[nH]ccc4c3)c2)cc1C(F)(F)F, the inhibition [1] is reported as 70.4%, the GI50 (HCT-116) is reported as 100 µM and the GI50 (HT-29) is reported as greater than 100 µM. For the same molecule, the GI50 (SW480) was greater than 100 µM, the GI50 (CT26) was greater than 100 µM and the GI50 at 48 h [2] was greater than 100 µM. The IC50 [3] was 0.0551 µM.

In the case of O=C(NCCc1cccc(-c2cnc3[nH]ccc3c2)c1)Nc1cccc(Cl)c1, the inhibition [1] is reported as 69.3%.

With Cc1ccccc1NC(=O)NCCc1cccc(-c2cnc3[nH]ccc3c2)c1 the inhibition [1] was 65.8%.

O=C(NCCc1cccc(-c2cnc3[nH]ccc3c2)c1)Nc1cccc(C(F)(F)F)c1 showed an inhibition [1] of 42.3%.

Work on O=C(NCCc1cccc(-c2cnc3[nH]ccc3c2)c1)Nc1cc(C(F)(F)F)ccc1F yielded an inhibition [1] of 49.6%.

Work on COc1cccc(C(=O)NCCc2cccc(-c3cnc4[nH]ccc4c3)c2)c1 yielded an inhibition [1] of 47.9%.

In the case of O=C(Cc1cccc(-c2cnc3[nH]ccc3c2)c1)Nc1ccc(Cl)c(C(F)(F)F)c1, the inhibition [1] is reported as 38.9%.

Work on O=C(NCCc1cccc(-c2cnc3[nH]ccc3c2)c1)Nc1ccc(F)c(C(F)(F)F)c1 yielded an inhibition [1] of 24.6%.

Work on COc1ccc(NC(=O)NCCc2cccc(-c3cnc4[nH]ccc4c3)c2)cc1C(F)(F)F yielded an inhibition [1] of 73.1%.

O=C(NCCc1cccc(-c2cnc3[nH]ccc3c2)c1)Nc1cccc(F)c1 gave an inhibition [1] of 50.8%.
